Measurements published in patent US12458021B2, “Microbiocidal derivatives” (SYNGENTA CROP PROTECTION AG, priority 2019, dated 2025).

How the values were obtained:
Alternaria solani = Alternaria solani / tomato / leaf disc (early blight); type: in vivo; settings: foliar, tomato leaf disks cv. Baby, inoculated 2 days after application, assessed 5-7 days after application, read-out: control of Alternaria solani (percent disease control compared to untreated)
Description: Example B1: Alternaria solani/Tomato/Leaf Disc (Early Blight) Tomato leaf disks cv. Baby are placed on agar in multiwell plates (24-well format) and sprayed with the formulated test compound diluted in water. The leaf disks are inoculated with a spore suspension of the fungus 2 days after application. The inoculated leaf disks are incubated at 23° C./21° C. […] […]-185.

[1] = system: Glomerella lagenarium (Colletotrichum lagenarium); assay: Glomerella lagenarium (Colletotrichum lagenarium) / liquid culture (anthracnose); type: cell-based; settings: Colletotrichum orbiculare, PDB potato dextrose broth, 24° C., 3-4 days after application, read-out: control of Glomerella lagenarium (inhibition of growth, photometric)
Method in brief: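 Fungal growth inhibition measured photometrically 3-4 days post-application at 24° C. Spores were mixed directly into potato dextrose broth and dispensed onto test compound supplied in DMSO.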

[2] = system: Blumeria graminis f. sp. tritici (Erysiphe graminis f. sp. tritici); assay: Blumeria graminis f. sp. tritici / wheat / leaf disc preventative (powdery mildew on wheat); type: in vivo; settings: foliar, wheat leaf segments cv. Kanzler, inoculated 1 day after application, assessed 6-8 days after application, read-out: control of Blumeria graminis f. sp. tritici (percent disease control compared to untreated)
Excerpt: Example B4: Blumeria graminis f. sp. tritici (Erysiphe graminis f. sp. tritici)/Wheat/Leaf Disc Preventative (Powdery Mildew on Wheat) Wheat leaf segments cv. Kanzler are placed on agar in a multiwell plate (24-well format) and sprayed with the formulated test compound diluted in water. The leaf disks are inoculated by shaking powdery mildew infected plants above the test plates 1 day after application. […] […]-192.

[3] = system: Phaeosphaeria nodorum (Septoria nodorum); assay: Phaeosphaeria nodorum (Septoria nodorum) / wheat / leaf disc preventative (glume blotch); type: in vivo; settings: Parastagonospora nodorum, foliar, wheat leaf segments cv. Kanzler, inoculated 2 days after application, assessed 5-7 days after application, read-out: control of Phaeosphaeria nodorum (percent disease control compared to untreated)
Description: Example B6: Phaeosphaeria nodorum (Septoria nodorum)/Wheat/Leaf Disc Preventative (Glume Blotch) Wheat leaf segments cv. Kanzler are placed on agar in a multiwell plate (24-well format) and sprayed with the formulated test compound diluted in water. The leaf disks are inoculated with a spore suspension of the fungus 2 days after application. The inoculated test leaf disks are incubated at 20° C. and 75% rh under a light regime of 12 h light/12 h darkness in a climate cabinet and the activity of a compound is assessed as percent disease control compared to untreated when an appropriate level of disease damage appears in untreated check leaf disks (5-7 days after application). […] […]-190.

[4] = system: Monographella nivalis (Microdochium nivale); assay: Monographella nivalis (Microdochium nivale) / liquid culture (foot rot cereals); type: cell-based; settings: PDB potato dextrose broth, 24° C., 4-5 days after application, read-out: control of Monographella nivalis (inhibition of growth, photometric)
Method in brief: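 Growth inhibition measured by photometry 4-5 days post-application at 24° C. Compound was dispensed as DMSO solution, then PDB broth containing conidia from cryogenic storage was added.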

[5] = system: Mycosphaerella arachidis (Cercospora arachidicola); assay: Mycosphaerella arachidis (Cercospora arachidicola) / liquid culture (early leaf spot); type: cell-based; settings: PDB potato dextrose broth, 24° C., 4-5 days after application, read-out: control of Mycosphaerella arachidis (inhibition of growth, photometric)
Method in brief: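 Conidia from cryogenic storage suspended in potato dextrose broth and added to compound in DMSO. Incubation at 24° C; growth inhibition read photometrically 4-5 days after application.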

[6] = system: Magnaporthe grisea (Pyricularia oryzae); assay: whole plant or invertebrate; type: in vivo; settings: foliar, read-out: control of Magnaporthe grisea (percent disease control compared to untreated)
Pyrenophora teres = Pyrenophora teres / barley / leaf disc preventative (net blotch); type: in vivo; settings: foliar, barley leaf segments cv. Hasso, inoculated 2 days after application, assessed 5-7 days after application, read-out: control of Pyrenophora teres (disease control compared to untreated)
Method in brief: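 Barley cv. Hasso leaf discs on agar were sprayed with diluted formulated compound, then inoculated with spore suspension 2 days later. Incubation at 20 °C, 65% rh, 12 h light/dark; disease control versus untreated assessed 5-7 days after application.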

Sclerotinia sclerotiorum = Sclerotinia sclerotiorum / liquid culture (cottony rot); type: cell-based; settings: PDB potato dextrose broth, mycelia fragments, 24° C., 3-4 days after application, read-out: control of Sclerotinia sclerotiorum (inhibition of growth, photometric)
Description: Example B14: Sclerotinia sclerotiorum/Liquid Culture (Cottony Rot) Mycelia fragments of a newly grown liquid culture of the fungus are directly mixed into nutrient broth (PDB potato dextrose broth). After placing a (DMSO) solution of test compound into a microtiter plate (96-well format) the nutrient broth containing the fungal material is added. The test plates are incubated at 24° C. and the inhibition of growth is determined photometrically 3-4 days after application.

[7] = system: Mycosphaerella graminicola (Septoria tritici); assay: Mycosphaerella graminicola (Septoria tritici) / liquid culture (Septoria blotch); type: cell-based; settings: Zymoseptoria tritici, PDB potato dextrose broth, 24° C., 4-5 days after application, read-out: control of Mycosphaerella graminicola (inhibition of growth, photometric)
Method in brief: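 Fungal growth inhibition was read photometrically 4-5 days after application. Compound was dosed from a DMSO solution into liquid cultures of spores in potato dextrose broth, incubated at 24° C.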

[8] = system: Botryotinia fuckeliana (Botrytis cinerea); assay: Botryotinia fuckeliana (Botrytis cinerea) / liquid culture (gray mould); type: cell-based; settings: Vogels broth, 24° C., 3-4 days after application, read-out: control of Botryotinia fuckeliana (inhibition of growth, photometric)
Description: Example B2: Botryotinia fuckeliana (Botrytis cinerea)/Liquid Culture (Gray Mould) Conidia of the fungus from cryogenic storage are directly mixed into nutrient broth (Vogels broth). After placing a (DMSO) solution of test compound into a microtiter plate (96-well format), the nutrient broth containing the fungal spores is added. The test plates are incubated at 24° C. and the inhibition of growth is determined photometrically 3-4 days after application. […] […]-190.

[9] = system: Puccinia recondita f. sp. tritici; assay: Puccinia recondita f. sp. tritici / wheat / leaf disc preventative (brown rust); type: in vivo; settings: foliar, wheat leaf segments cv. Kanzler, inoculated 1 day after application, assessed 7-9 days after application, read-out: control of Puccinia recondita f. sp. tritici, preventative (percent disease control compared to untreated)
Method in brief: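 Wheat leaf segments (cv. Kanzler) on agar were sprayed with formulated compound, then inoculated with spores 1 day later. Segments were incubated at 19 °C, 75% rh with 12 h light/dark. Percent disease control versus untreated was scored 7–9 days after application.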

CCOc1ccc(Nc2cc(F)cc(F)c2)nc1C(=O)NC1CCC1(C)C (stereo not shown) [Compound P-44, 6-(3,5-difluoroanilino)-N-(2,2-dimethylcyclobutyl)-3-ethoxy-pyridine-2-carboxamide]
≥ 80%: pest or weed control at 200 ppm (Alternaria solani) | inhibition at 20 ppm [1] | pest or weed control at 200 ppm [2] | pest or weed control at 200 ppm [3] | inhibition at 20 ppm [4] | inhibition at 20 ppm [5] | pest or weed control at 200 ppm [6] | pest or weed control at 200 ppm (Pyrenophora teres) | inhibition at 20 ppm (Sclerotinia sclerotiorum) | inhibition at 20 ppm [7]

COc1ccc(Nc2cc(F)cc(F)c2)nc1C(=O)NCC1(C)CCOC2(CCC2)C1 (stereo not shown) [Compound P-67, 6-(3,5-difluoroanilino)-3-methoxy-N-[(8-methyl-5-oxaspiro[3.5]nonan-8-yl)methyl]pyridine-2-carboxamide]
≥ 80%: pest or weed control at 200 ppm (Alternaria solani) | inhibition at 20 ppm [1] | pest or weed control at 200 ppm [2] | inhibition at 20 ppm [4] | inhibition at 20 ppm [5] | pest or weed control at 200 ppm [6] | inhibition at 20 ppm (Sclerotinia sclerotiorum) | inhibition at 20 ppm [7]

COc1ccc(Nc2cc(F)cc(F)c2)nc1C(=O)NC(C)(C)C(C)(C)C [Compound P-171, 6-(3,5-difluoroanilino)-3-methoxy-N-(1,1,2,2-tetramethylpropyl)pyridine-2-carboxamide]
≥ 80%: pest or weed control at 200 ppm (Alternaria solani) | inhibition at 20 ppm [8] | inhibition at 20 ppm [1] | pest or weed control at 200 ppm [2] | pest or weed control at 200 ppm [3] | inhibition at 20 ppm [4] | inhibition at 20 ppm [5] | pest or weed control at 200 ppm [9] | pest or weed control at 200 ppm (Pyrenophora teres) | inhibition at 20 ppm [7]

COc1ccc(Nc2ccc3occc3c2)nc1C(=O)NC(C)(C)C [Compound P-157, 6-(benzofuran-5-ylamino)-N-tert-butyl-3-methoxy-pyridine-2-carboxamide]
≥ 80%: inhibition at 20 ppm [1] | inhibition at 20 ppm [4] | inhibition at 20 ppm (Sclerotinia sclerotiorum) | inhibition at 20 ppm [7]

COc1cnc(Nc2cc(F)cc(F)c2)nc1C(=O)NC1CCC1(C)C (stereo not shown) [Compound P-10, 2-(3,5-difluoroanilino)-N-(2,2-dimethylcyclobutyl)-5-methoxy-pyrimidine-4-carboxamide]
≥ 80%: pest or weed control at 200 ppm (Alternaria solani) | inhibition at 20 ppm [1] | pest or weed control at 200 ppm [2] | inhibition at 20 ppm [4] | pest or weed control at 200 ppm [6] | pest or weed control at 200 ppm (Pyrenophora teres) | inhibition at 20 ppm (Sclerotinia sclerotiorum) | inhibition at 20 ppm [7]

COc1ccc(Nc2cc(F)cc(F)c2)nc1C(=O)NC1(C)CCOC1 (stereo not shown) [Compound P-122, 6-(3,5-difluoroanilino)-3-methoxy-N-(3-methyltetrahydrofuran-3-yl)pyridine-2-carboxamide]
≥ 80%: inhibition at 20 ppm [1] | pest or weed control at 200 ppm [2] | inhibition at 20 ppm [4] | pest or weed control at 200 ppm [6] | inhibition at 20 ppm (Sclerotinia sclerotiorum) | inhibition at 20 ppm [7]

CC1(C)CCC1NC(=O)c1nc(Nc2cnsc2)ccc1O (stereo not shown) [Compound P-19, N-(2,2-dimethylcyclobutyl)-3-hydroxy-6-(isothiazol-4-ylamino)pyridine-2-carboxamide]
≥ 80%: inhibition at 20 ppm [1] | inhibition at 20 ppm [4] | inhibition at 20 ppm [5] | inhibition at 20 ppm (Sclerotinia sclerotiorum) | inhibition at 20 ppm [7]

CC(C)(C)NC(=O)c1cccc(Nc2cc(F)cc(F)c2)n1 [Compound P-112, N-tert-butyl-6-(3,5-difluoroanilino)pyridine-2-carboxamide]
≥ 80%: pest or weed control at 200 ppm (Alternaria solani) | inhibition at 20 ppm [8] | inhibition at 20 ppm [1] | pest or weed control at 200 ppm [2] | pest or weed control at 200 ppm [3] | inhibition at 20 ppm [4] | pest or weed control at 200 ppm [9] | pest or weed control at 200 ppm [6] | inhibition at 20 ppm [7]

COc1cc(Nc2cc(F)cc(F)c2)nc(C(=O)NC(C)(C)C)c1 [Compound P-116, N-tert-butyl-6-(3,5-difluoroanilino)-4-methoxy-pyridine-2-carboxamide]
≥ 80%: inhibition at 20 ppm [8] | inhibition at 20 ppm [1] | pest or weed control at 200 ppm [3] | pest or weed control at 200 ppm (Pyrenophora teres)

COc1ccc(Nc2cc(F)cc(C#N)c2)nc1C(=O)NC(C)(C)C [Compound P-147, N-tert-butyl-6-(3-cyano-5-fluoro-anilino)-3-methoxy-pyridine-2-carboxamide]
≥ 80%: pest or weed control at 200 ppm (Alternaria solani) | inhibition at 20 ppm [1] | pest or weed control at 200 ppm [2] | inhibition at 20 ppm [4] | pest or weed control at 200 ppm [9] | pest or weed control at 200 ppm [6] | pest or weed control at 200 ppm (Pyrenophora teres) | inhibition at 20 ppm (Sclerotinia sclerotiorum) | inhibition at 20 ppm [7]

COc1ccc(Nc2cc(F)cc(F)c2)nc1C(=O)NC(C)(C)C(C)C [Compound P-172, 6-(3,5-difluoroanilino)-3-methoxy-N-(1,1,2-trimethylpropyl)pyridine-2-carboxamide]
≥ 80%: pest or weed control at 200 ppm (Alternaria solani) | inhibition at 20 ppm [8] | inhibition at 20 ppm [1] | pest or weed control at 200 ppm [2] | pest or weed control at 200 ppm [3] | inhibition at 20 ppm [4] | inhibition at 20 ppm [5] | pest or weed control at 200 ppm [9] | inhibition at 20 ppm [7]

COc1ccc(Nc2cc(F)cc(F)c2)nc1C(=O)NCCc1ccc(OC(F)(F)F)cc1 [Compound P-74, 6-(3,5-difluoroanilino)-3-methoxy-N-[2-[4-(trifluoromethoxy)phenyl]ethyl]pyridine-2-carboxamide]
≥ 80%: pest or weed control at 200 ppm (Alternaria solani) | inhibition at 20 ppm [1] | pest or weed control at 200 ppm [2] | inhibition at 20 ppm [4] | inhibition at 20 ppm [5] | pest or weed control at 200 ppm [6] | inhibition at 20 ppm (Sclerotinia sclerotiorum) | inhibition at 20 ppm [7]

COc1ccc(Nc2cc(F)cc(F)c2)nc1C(=O)NC1(C#N)CCCC1 [Compound P-123, N-(1-cyanocyclopentyl)-6-(3,5-difluoroanilino)-3-methoxy-pyridine-2-carboxamide]
≥ 80%: inhibition at 20 ppm [1] | pest or weed control at 200 ppm [2] | inhibition at 20 ppm [4] | pest or weed control at 200 ppm [9] | pest or weed control at 200 ppm [6] | inhibition at 20 ppm (Sclerotinia sclerotiorum) | inhibition at 20 ppm [7]
